Format in all cases: in vivo, mouse (male Balb/c)
In assay [1] the test system is ornithine decarboxylase (ODC) activity of extra-orbital lacrimal gland. As to the kind of experiment: Ornithine decarboxylase activity of extra-orbital lacrimal gland, subcutaneous continuous administration. Conditions: mice; for Glandular cell growth Lacrimal gland: ODC activity 10 hours after implantation. The method, then: (§1) Male Balb/c mice were used in the test.
(§2) The compound A was dissolved in physiological saline to a concentration of 0.625, 1.25, 2.5, 5.0, 10 or 20 mg/200 μl, and filled each pump (Alzet mini-osmotic pump 2001D, 8 μl/h, 1 day; DURECT Corporation) with about 200 μl portions It means, that is, each pump releases at a rate of 0.025, 0.05, 0.1, 0.2, 0.4 or 0.8 mg compound A/h, respectively. About 5 mm of dorsal epidermis of a mouse anesthetized with diethyl ether was incised, the osmotic pump already filled with the compound A was subcutaneously implanted, and then the skin was stitched. Secreted amounts of salivary and tear fluid and sweating were periodically measured from just before the implantation of pump until 32 hours after the administration. The ornithine decarboxylase activity was measured 10 hours after the implantation.
(§3) Pilocarpine was dissolved in physiological saline to a concentration of 0.039, 0.078, 0.16 or 0.31 mg/200 μl, or cevimeline to a concentration of 0.16, 0.31, 0.63 or 1.3 mg/200 μl, and filled the osmotic pump (Alzet mini-osmotic pump 2001 D, 8 μl/h, 1 day; DURECT Corporation) with about 200 μl portions. It means, that is, each pump releases at a rate of 0.00156, 0.00312, 0.0064 or 0.0124 mg/h (pilocarpine) or 0.0064, 0.0124, 0.0252 or 0.05 mg/h (cevimeline). About 5 mm of dorsal epidermis of a mouse anesthetized with diethyl ether was incised, the osmotic pump already filled with pilocarpine or cevimeline was subcutaneously implanted, and then the skin was stitched. Secreted amounts of salivary and tear fluid and sweating were periodically measured from just before the implantation of pump until 32 hours after the administration. The ornithine decarboxylase activity was measured 10 hours after the implantation.
(§4) Thus, it can be easily analogized that the ODC activity becomes a useful index of cell growth and function of the exocrine gland. Accordingly, the ability of each drug to activate glandular tissue was evaluated by measuring ODC activity of parotid salivary gland and extra-orbital lacrimal gland.
(§5) The amount of ^14CO2 formed from L-^14C-ornithine was used as the index of ODC activity.
(§6) A mouse anesthetized with diethyl ether was sacrificed by bleeding, and left and right parotid salivary glands and extra-orbital lacrimal glands were isolated. After removing the attached connective tissue and fat, the isolated glandular tissues homogenized in 1.5 ml of a homogenate buffer (25 mM Tris-HCl buffer (pH 7.4) containing 0.1 mM ethylenediaminetetraacetic acid, 0.4 mM pyridoxal phosphate, 5 mM dithiothreitol and 0.1% Brij 35®) using a Potter type homogenizer and then centrifuged at 4° C., 15,000 g for 30 minutes, and the supernatant was used as the enzyme fraction. Reaction of the enzyme and substrate was carried out by adding 100 μl of a substrate solution (the homogenate buffer containing 300 μM DL-ornithine and 5 μCi L-^14C-ornithine) to 900 μl of the enzyme liquid whose protein concentration had been adjusted to 2.5 mg/ml and incubating at 37° C. for 1 hour in a sealed tube, and the reaction was terminated by the addition of 100 μl of 2 M H2SO4. The ^14CO2 generated by the reaction was captured by 150 μl of 1 N NaOH soaked in a glass filter. Radioactivity of the ^14CO2 captured on the glass filter was detected using a liquid scintillation counter. The enzyme activity (pmol ^14CO2/mg protein/hour) was calculated from the measured results.
(§7) All of the test results were expressed as fold increases of the reactions of the drug-administered group versus those of the vehicle-administered group, and comparison between the drug-administered groups and the vehicle-administered group was carried out using Dunnett's t-test. P<0.05 was considered significant. Results

Assay [2] relates to salivary gland. As to the kind of experiment: Salivary fluid secretion after subcutaneous bolus administration. As to conditions: mice; for dose at which statistically significant acceleration of salivary fluid secretion was attained / time after administration at which secretion amount of salivary and tear fluid reached maximum: s.c. bolus; for time after administration at which secretion amount of salivary and tear fluid reached maximum: every dose. As for the experimental part:
as §1
(§8) The compound A was dissolved in physiological saline to a concentration of 1, 3, 10, 30 or 100 mg/5 ml, and 5 ml/kg of the drug solution was administered under the dorsal skin. Secreted amounts of salivary and tear fluid were measured just before the administration of compound A and 10, 20, 30, 40 and 50 minutes after the administration. The sweating action was measured 10 minutes after the administration. Also, the growth acceleration action was measured 6 hours after the administration.
(§9) Pilocarpine was dissolved in physiological saline to a concentration of 0.03, 0.1, 0.3, 1, 3 or 10 mg/5 ml, or cevimeline to a concentration of 0.3, 1, 3, 10, 30 or 100 mg/5 ml, and 5 ml/kg of the drug solution was administered under the dorsal skin. Secreted amounts of salivary and tear fluid were measured just before the administration of pilocarpine or cevimeline and 10, 20, 30, 40 and 50 minutes after the administration. The sweating action was measured 10 minutes after the administration. Also, the growth acceleration action was measured 6 hours after the administration.
(§10) The mouth of a mouse was wiped with a cotton ball whose weight had been measured in advance, and the incremental weight was used as the amount of salivary fluid. Also at the same time, a thread for tear fluid measurement (Zone Quick; Menicon) used on the Schirmer test was inserted into the lower eyelid conjunctival sac, and the length of colored part was measured and used as the amount of tear fluid. From the measurement results, area under the secreted amount-versus-time curve (AUC) was calculated.
as §7

Assay [3] deals with lacrimal gland. As to the kind of experiment: Tear fluid secretion after subcutaneous bolus administration. Conditions: mice; for dose at which statistically significant acceleration of tear fluid secretion was attained: s.c. bolus. The method, then:
as §1, §8, §9, §10, §7

Assay [4] has as its system ornithine decarboxylase (ODC) activity of parotid salivary gland. Put plainly: Ornithine decarboxylase activity of parotid salivary gland, subcutaneous continuous administration. Conditions: mice; for Glandular cell growth Salivary gland: ODC activity 10 hours after implantation. As for the experimental part: as §1, §2, §3, §4, §5, §6, §7
[5] abbreviates: s.c. osmotic pump 0.63 mg (0.0252 mg/h).
The mark [6] stands for this setting: s.c. osmotic pump 1.25 (0.05 mg/h).
Setting [7] is: s.c. bolus 0.3 mg/kg, 10 minutes after administration (Table 4).
The mark [8] stands for this setting: s.c. bolus 1 mg/kg, 10 minutes after administration (Table 4).
[9] abbreviates: s.c. bolus 3 mg/kg, 10 minutes after administration (Table 4).
The mark [10] stands for this setting: s.c. bolus 10 mg/kg, 10 minutes after administration (Table 4).
Where [11] appears, read: 10 minutes after administration.
Where [12] appears, read: s.c. osmotic pump 0.16 mg (0.0064 mg/h).
Setting [13] is: s.c. osmotic pump 0.31 mg (0.0124 mg/h).
Setting [14] is: s.c. bolus 0.03 mg/kg, 10 minutes after administration.
The mark [15] stands for this setting: s.c. bolus 0.1 mg/kg, 10 minutes after administration.
Setting [16] is: s.c. bolus 0.3 mg/kg, 10 minutes after administration.
[17] abbreviates: s.c. bolus 1 mg/kg, 10 minutes after administration (Table 3).
The mark [18] stands for this setting: s.c. osmotic pump 1.25 mg (0.05 mg/h).
Setting [19] is: s.c. osmotic pump 2.5 mg (0.1 mg/h).
[20] abbreviates: s.c. osmotic pump 5 mg (0.2 mg/h).
Setting [21] is: s.c. osmotic pump 10 mg (0.4 mg/h).
[22] abbreviates: s.c. bolus 1 mg/kg, 10 minutes after administration.
The mark [23] stands for this setting: s.c. bolus 3 mg/kg, 10 minutes after administration.
[24] abbreviates: s.c. bolus 10 mg/kg, 10 minutes after administration.

Turning to `CC1OC2(CS1)CN1CCC2CC1` (stereo not shown) [cevimeline], the figures for the “Glandular cell growth Lacrimal gland” value in assay [1] (setting [5]) and in assay [1] (setting [6]) were 1.4 ± 0.28 fold increase vs. the solvent group and 1.3 ± 0.70 fold increase vs. the solvent group, respectively. Further, the Salivary fluid in assay [2] (setting [7]) is 1.2 ± 0.13 fold increase vs. the vehicle group; in assay [2] (setting [8]), 2.0 ± 0.22 fold increase vs. the vehicle group; in assay [2] (setting [9]), 2.1 ± 0.42 fold increase vs. the vehicle group; in assay [2] (setting [10]), 3.1 ± 0.50 fold increase vs. the vehicle group. Also, the “dose at which statistically significant acceleration of salivary fluid secretion was attained” value in assay [2] (setting [11]) is 3 mg/kg. For the same molecule, the “time after administration at which secretion amount of salivary and tear fluid reached maximum” value (“time after administration” for short) in assay [2] worked out at 10 min. Besides, the Tear fluid in assay [3] (setting [7]) is 1.1 ± 0.14 fold increase vs. the vehicle group; in assay [3] (setting [8]) it was 1.1 ± 0.14 fold increase vs. the vehicle group; in assay [3] (setting [9]), 1.1 ± 0.16 fold increase vs. the vehicle group; in assay [3] (setting [10]), 3.6 ± 0.88 fold increase vs. the vehicle group. Further, in assay [3] (setting [11]), the “dose at which statistically significant acceleration of tear fluid secretion was attained” value is 10 mg/kg. Moreover, in assay [4] (s.c. continuous administration), the “glandular cell ODC activity acceleration action” value was “not confirmed even at 1.25 mg”. The “Glandular cell growth Salivary gland” value in assay [4] (setting [5]) is 0.87 ± 0.05 fold increase vs. the solvent group; in assay [4] (setting [6]), 0.45 ± 0.12 fold increase vs. the solvent group.

For the molecule `CC[C@@H]1C(=O)OC[C@@H]1Cc1cncn1C` [pilocarpine], in assay [1] (s.c. continuous administration), the “dose at which ODC activity increasing action of lacrimal gland cell was observed” value was 0.31 mg. Further, the figures for the “Glandular cell growth Lacrimal gland” value in assay [1] (setting [12]) and in assay [1] (setting [13]) were 1.4 ± 0.33 fold increase vs. vehicle group and 2.0 ± 0.28 fold increase vs. vehicle group, respectively. Moreover, the Salivary fluid in assay [2] (setting [14]) is 1.2 ± 0.15 fold increase vs. the vehicle group; in assay [2] (setting [15]), 1.8 ± 0.23 fold increase vs. the vehicle group; in assay [2] (setting [16]), 1.7 ± 0.15 fold increase vs. the vehicle group; in assay [2] (setting [17]), 2.0 ± 0.18 fold increase vs. the vehicle group. Moreover, in assay [2] (setting [11]), the “dose at which statistically significant acceleration of salivary fluid secretion was attained” value is 0.1 mg/kg. The “time after administration” value in assay [2] is 10 min. In addition, the Tear fluid is listed as 0.65 ± 0.19 fold increase vs. the vehicle group in assay [3] (setting [14]), 0.80 ± 0.24 fold increase vs. the vehicle group in assay [3] (setting [15]), 1.1 ± 0.14 fold increase vs. the vehicle group in assay [3] (setting [16]) and 2.7 ± 0.40 fold increase vs. the vehicle group in assay [3] (setting [17]). Further, the “dose at which statistically significant acceleration of tear fluid secretion was attained” value in assay [3] (setting [11]) was determined as 1 mg/kg. Also, the results for the “Glandular cell growth Salivary gland” value in assay [4] (setting [12]) and in assay [4] (setting [13]) were 0.42 ± 0.06 fold increase vs. vehicle group and 1.1 ± 0.20 fold increase vs. vehicle group, respectively.

In the case of `C=C1CC2(CCN(C)CC2)O[C@H]1C` [compound A, (−)-(S)-2,8-dimethyl-3-methylene-1-oxa-8-azaspiro[4.5]decane], the “Glandular cell growth Lacrimal gland” value was 3.3 ± 1.2 fold increase vs. the vehicle group in assay [1] (setting [18]), 6.7 ± 0.90 fold increase vs. the vehicle group in assay [1] (setting [19]), 9.2 ± 1.4 fold increase vs. the vehicle group in assay [1] (setting [20]) and 7.1 ± 1.2 fold increase vs. the vehicle group in assay [1] (setting [21]). For the same molecule, the Salivary fluid in assay [2] (setting [22]) is 1.5 ± 0.10 fold increase vs. the vehicle group; in assay [2] (setting [23]), 1.8 ± 0.13 fold increase vs. the vehicle group; in assay [2] (setting [24]), 3.3 ± 1.1 fold increase vs. the vehicle group. The “dose at which statistically significant acceleration of salivary fluid secretion was attained” value in assay [2] (setting [11]) is listed as 10 mg/kg. Also, the “time after administration” value in assay [2] stood at 10 min. The Tear fluid in assay [3] (setting [22]) was 1.3 ± 0.11 fold increase vs. the vehicle group; in assay [3] (setting [23]), 1.4 ± 0.15 fold increase vs. the vehicle group; in assay [3] (setting [24]), 2.2 ± 0.25 fold increase vs. the vehicle group. The “dose at which statistically significant acceleration of tear fluid secretion was attained” value in assay [3] (setting [11]) is reported as 10 mg/kg. In addition, the “Glandular cell growth Salivary gland” value in assay [4] (setting [18]) is listed as 1.56 ± 0.33 fold increase vs. the vehicle group; in assay [4] (setting [19]), 6.9 ± 2.3 fold increase vs. the vehicle group; in assay [4] (setting [20]) it was 9.6 ± 1.8 fold increase vs. the vehicle group; in assay [4] (setting [21]), 9.8 ± 2.6 fold increase vs. the vehicle group.

For the origin of these results see patent US20080131511A1, “Pharmaceutical Composition for Treatment of Tear and Salivary Fluid Drying” (Astellas Pharma, Inc., priority 2004, published 2008).
